The source made the active and inactive calls. No cut-off for these calls is given here.
Key:
Assay type in all cases: functional, organism-based
Mus musculus [1] = assay: Antiallergic effect in ovalbumin-sensitized and repeatedly challenged BALB/c mouse food allergy model assessed as attenuation of duodenal interleukin-4 expression at 100 mg/kg, po by immunohistochemistry; set-up: dose 100 mg/kg
Mus musculus [2] = assay: Antiallergic effect in ovalbumin-sensitized and repeatedly challenged BALB/c mouse food allergy model assessed as attenuation of duodenal interleukin-4 expression at 200 mg/kg, po by immunohistochemistry; set-up: dose 200 mg/kg
Mus musculus [3] = assay: Effect on T-cell infiltration in ovalbumin-sensitized and repeatedly challenged BALB/c mouse food allergy model assessed as CD3+ cells at 100 mg/kg, po by immunohistochemistry; set-up: dose 100 mg/kg
Mus musculus [4] = assay: Effect on T-cell infiltration in ovalbumin-sensitized and repeatedly challenged BALB/c mouse food allergy model assessed as CD3+ cells at 200 mg/kg, po by immunohistochemistry; set-up: dose 200 mg/kg
Mus musculus [5] = assay: Antiallergic effect in ovalbumin-sensitized and repeatedly challenged BALB/c mouse food allergy model assessed as inhibition of duodenal GATA3 expression at 100 mg/kg, po by immunohistochemistry; set-up: dose 100 mg/kg
Mus musculus [6] = assay: Antiallergic effect in ovalbumin-sensitized and repeatedly challenged BALB/c mouse food allergy model assessed as inhibition of duodenal GATA3 expression at 200 mg/kg, po by immunohistochemistry; set-up: dose 200 mg/kg
Mus musculus [7] = assay: Enhancement in regulatory T-cell immunity in intestine of ovalbumin-sensitized and repeatedly challenged BALB/c mouse food allergy model assessed as increase in Foxp3+ and IL10+ cells at 100 mg/kg, po by immunohistochemistry; set-up: dose 100 mg/kg
Mus musculus [8] = assay: Enhancement in regulatory T-cell immunity in intestine of ovalbumin-sensitized and repeatedly challenged BALB/c mouse food allergy model assessed as increase in Foxp3+ and IL10+ cells at 200 mg/kg, po by immunohistochemistry; set-up: dose 200 mg/kg
Mus musculus [9] = assay: Enhancement in regulatory T-cell immunity in intestine of ovalbumin-sensitized and repeatedly challenged BALB/c mouse food allergy model assessed as increase in Foxp3+ and IL10+ cells at 100 mg/kg, po by RT-PCR; set-up: dose 100 mg/kg
Mus musculus [10] = assay: Enhancement in regulatory T-cell immunity in intestine of ovalbumin-sensitized and repeatedly challenged BALB/c mouse food allergy model assessed as increase in Foxp3+ and IL10+ cells at 200 mg/kg, po by RT-PCR; set-up: dose 200 mg/kg
Mus musculus [11] = assay: Effect on TGFbeta+ cells in ovalbumin-sensitized and repeatedly challenged BALB/c mouse food allergy model at 100 mg/kg, po by immunohistochemistry; set-up: dose 100 mg/kg
Mus musculus [12] = assay: Effect on TGFbeta+ cells in ovalbumin-sensitized and repeatedly challenged BALB/c mouse food allergy model at 200 mg/kg, po by immunohistochemistry; set-up: dose 200 mg/kg

## C[C@@H]1CC[C@@]2(OC1)O[C@H]1C[C@H]3[C@@H]4CC=C5C[C@@H](O)CC[C@]5(C)[C@H]4CC[C@]3(C)[C@H]1[C@@H]2C
Mus musculus [1]
  inhibition: Active
Mus musculus [2]
  inhibition: Active
Mus musculus [3]
  Activity: inactive
Mus musculus [4]
  Activity: inactive
Mus musculus [5]
  inhibition: Active
Mus musculus [6]
  inhibition: Active
Mus musculus [7]
  Activity: Active
Mus musculus [8]
  Activity: Active
Mus musculus [9]
  Activity: Active
Mus musculus [10]
  Activity: Active
Mus musculus [11]
  Activity: inactive
Mus musculus [12]
  Activity: inactive
